In US10413545B2, “Imidazolin-5-one derivative useful as FASN inhibitors for the treatment of cancer” (Janssen Pharmaceutica NV, priority 2013, dated 2019):
Like-named read-outs stand apart in the source and are kept apart here.

Tests used:
A2780 ovarian cells = assay: A2780 Ovarian Cell Proliferation Assay in Lipid Reduced Medium, with and without Palmitate (MTT); assay type: cell-based; conditions: Homo sapiens, 10% lipid-reduced serum, 96 h
Protocol: The biological assays described below correspond to comparative assays for ovarian cell proliferation.
2500 cells were seeded in a 96-well clear well plate in 200 μL RPM11640 with 10% Fetal Calf Serum (Hyclone), and incubated at 37° C., 5% CO2, Blanks were wells without cells. The next day the culture medium was aspirated and replaced by 160 μL culture medium with 10% Lipid-Reduced Serum (LRS, Hyclone). […] After 96 h incubation, an MTT assay was performed.
2500 cells were seeded in a 96-well clear well plate in 200 μL RPM11640 with 10% Fetal Calf Serum (Hyclone), and incubated at 37° C., 5% CO2. Blanks were wells without cells. The next day the culture medium was aspirated and replaced by 160 μL culture medium with 10% Lipid-Reduced Serum (LRS, Hyclone). 20 μL test compound (at concentrations of 30 μM, 10 μM, 3 μM, 1 μM, 0.30 μM, 0.10 μM, 0.03 μM and 0.01 μM)/DMSO dilution followed by 20 μL ethanol-BSA solution were added to a final concentrations of 0.2% DMSO, 0.2% fatty-acid-free BSA, 0.25% ethanol. After 96 h incubation an MTT assay was performed.
Raw data generated by the instrument were normalized to % Controlmin values, which were calculated as: % Controlmin=100*(x−mLC)/(mHC−mLC)
where mLC and mHC were the means of the low control wells and high control wells on the plate, after manual exclusion of outliers. A plot of Controlmin versus test compound concentration was fitted to a 4-parameter logistic curve using a non-linear least squares regression method.

[1] = system: PC-3M-Luc-C6 prostate cells; assay: In Vitro PC-3M-Luc-C6 Prostate Cell Proliferation Assay in Lipid Reduced Medium; assay type: cell-based; conditions: Prostate cell, read-out: pIC50 PC-3M-Luc-C6 prostate cell (converted); 10% lipid reduced serum, 96 h, ATP-glow luminescence
Protocol: PC-3M-Luc-C6 prostate cells were obtained from Xenogen Corporation. Cells were maintained in MEM supplemented with 10% Fetal Calf Serum (FCS, Hyclone), 2 mM glutamine, 1 mM sodium pyruvate, 1% BME vitamins (available from for example, Sigma Aldrich), 0.1 mM non Essential Amino Acid and 50 μg/ml Gentamicin. The cells were passaged twice a week.
The next day 10 μl test compound/DMSO diluted in medium was added (3E-5M, 1E-5M, 3E-6M,1E-6M, 3E-7M, 1E-7M, 3E-8M, 1E-8M final concentration). Compounds were tested in duplicate. After 96 h incubation at 37° C., 5% CO2 25 μl ATP-glow mix was added. The plate was incubated for 30 min at 37° C. and luminescence was measured with the Envision.
Analysis: Determination of pIC50 Values
pIC50 values were calculated as follows. Raw data generated by the instruments were normalized to % Controlmin values, which were calculated as: % Controlmin=100*(x−mLC)/(mHC−mLC),
where mLC and mHC are the means of the low control wells and high control wells on the plate, after manual exclusion of outliers. The relation between the % Controlmin values and concentration was fitted to a 4-parameter logistic curve using a non-linear least squares regression method to determine the pIC50 value. Outlying data points were excluded manually to get a correct fit. The pIC50 corresponds to −log 10(IC50), if the IC50 is expressed in molar units (http://www.ncbi.nlm.nih.qovibooks/NBK91994). The IC50 parameter was always determined by non-linear regression, but one or more of the other parameters may have been held fixed on a relevant input value, such as 0 for the bottom values.

[2] = 25 μM palmitate added (control), read-out: pIC50 With Palmitate (converted)
[3] = no palmitate, read-out: pIC50 Without Palmitate (converted)

Compound	IC50 (A2780 ovarian cells; [2]) [nM]	IC50 (A2780 ovarian cells; [3]) [nM]	IC50 [1] [nM]
Cn1cnc2cc(-c3ccc(C4=NC(C)(C)C(=O)N4CC4CN(C(=O)C5(O)CC5)C4)c(F)c3)ccc21 [Compound 94, 2-(2-fluoro-4-(1-methyl-1H-benzo[d]imidazol-5-yl)phenyl)-1-((1-(1-hydroxycyclopropanecarbonyl)azetidin-3-yl)methyl)-4,4-dimethyl-1H-imidazol-5(4H)-one]	> 10000	100	
CC1(C)N=C(c2ccc(-c3ccc4cc(F)ccc4c3)cc2F)N(C[C@@H]2CCN(C(=O)C3(O)CC3)C2)C1=O [Compound 88, (R)-2-(2-fluoro-4-(6-fluoronaphthalen-2-yl)phenyl)-1-((1-(1-hydroxycyclopropanecarbonyl)pyrrolidin-3-yl)methyl)-4,4-dimethyl-1H-imidazol-5(4H)-one]	> 10000	~14.8	
Cc1cc(-c2ccc3c(c2)ncn3C)ccc1C1=NC(C)(C)C(=O)N1C[C@@H]1CCN(C(=O)C2(O)CC2)C1 [Compound 92, (R)-1-((1-(1-hydroxycyclopropanecarbonyl)pyrrolidin-3-yl)methyl)-4,4-dimethyl-2-(2-methyl-4-(1-methyl-1H-benzo[d]imidazol-5-yl)phenyl)-1H-imidazol-5(4H)-one]	> 10000	~5.5	
Cn1cc(-c2ccc(-c3ccc(C4=NC(C)(C)C(=O)N4CC4CN(C(=O)C5(O)CC5)C4)c(F)c3)cc2)cn1 [Compound 81, 2-(3-fluoro-4′-(1-methyl-1H-pyrazol-4-yl)-[1,1′-biphenyl]-4-yl)-1-((1-(1-hydroxycyclopropanecarbonyl)azetidin-3-yl)methyl)-4,4-dimethyl-1H-imidazol-5(4H)-one]	> 10000	229	661
Cc1cc(-c2ccc3c(c2)ncn3C)ccc1C1=NC(C)(C)C(=O)N1CC1CN(C(=O)C2(O)CC2)C1 [Compound 91, 1-((1-(1-hydroxycyclopropanecarbonyl)azetidin-3-yl)methyl)-4,4-dimethyl-2-(2-methyl-4-(1-methyl-1H-benzo[d]imidazol-5-yl)phenyl)-1H-imidazol-5(4H)-one]	> 10000	129	
CC1(C)N=C(c2ccc(-c3ccc4[nH]ccc4c3)cc2)N(C[C@@H]2CCN(C(=O)C3CC3)C2)C1=O [Compound 1, (R)-2-(4-(1H-Indol-5-yl)phenyl)-1-((1-(cyclopropanecarbonyl)pyrrolidin-3-yl)methyl)-4,4-dimethyl-1H-imidazol-5(4H)-one]	> 10000	74.1	
Cc1cc(-c2ccc3cc(F)ccc3c2)ccc1C1=NC(C)(C)C(=O)N1C[C@@H]1CCN(C(=O)C2(C)CC2)C1 [Compound 86, (R)-2-(4-(6-fluoronaphthalen-2-yl)-2-methylphenyl)-4,4-dimethyl-1-((1-(1-methylcyclopropanecarbonyl)pyrrolidin-3-yl)methyl)-1H-imidazol-5(4H)-one]	~7760	3.98	6.17
CC1(C)N=C(c2ccc(-c3ccc4ncccc4c3)cc2)N(CC2CN(C(=O)C3CC3)C2)C1=O [Compound 98, 1-((1-(cyclopropanecarbonyl)azetidin-3-yl)methyl)-4,4-dimethyl-2-(4-(quinolin-6-yl)phenyl)-1H-imidazol-5(4H)-one]	> 10000	> 10000	
CC1(C)N=C(c2ccc(-c3n[nH]c4ccccc34)cc2)N(CC2CN(C(=O)C3CC3)C2)C1=O [Compound 99, 2-(4-(1H-indazol-3-yl)phenyl)-1-((1-(cyclopropanecarbonyl)azetidin-3-yl)methyl)-4,4-dimethyl-1H-imidazol-5(4H)-one]	> 10000	> 10000	
Cn1ncc2cc(-c3ccc(C4=NC(C)(C)C(=O)N4C[C@@H]4CCN(C(=O)C5CC5)C4)cc3)ccc21 [Compound 2, (R)-1-((1-(cyclopropanecarbonyl)pyrrolidin-3-yl)methyl)-4,4-dimethyl-2-(4-(1-methyl-1H-indazol-5-yl)phenyl)-1H-imidazol-5(4H)-one]	> 10000	525	
CC1(C(=O)N2CC[C@@H](CN3C(=O)C(C)(C)N=C3c3ccc(-c4ccc5cc(F)ccc5c4)cc3F)C2)CC1 [Compound 75, (R)-2-(2-fluoro-4-(6-fluoronaphthalen-2-yl)phenyl)-4,4-dimethyl-1-((1-(1-methylcyclopropanecarbonyl)pyrrolidin-3-yl)methyl)-1H-imidazol-5(4H)-one]	3310	11	
Cn1cnc2cc(-c3ccc(C4=NC(C)(C)C(=O)N4CC4CN(C(=O)C5(C)CC5)C4)c(F)c3)ccc21 [Compound 93, 2-(2-fluoro-4-(1-methyl-1H-benzo[d]imidazol-5-yl)phenyl)-4,4-dimethyl-1-((1-(1-methylcyclopropanecarbonyl)azetidin-3-yl)methyl)-1H-imidazol-5(4H)-one]	> 10000	30.9	
Cn1ncc2cc(-c3ccc(C4=NC(C)(C)C(=O)N4C[C@@H]4CCN(C(=O)C5(O)CC5)C4)c(F)c3)ccc21 [Compound 76, (R)-2-(2-fluoro-4-(1-methyl-1H-indazol-5-yl)phenyl)-1((1-(1-hydroxycyclopropanecarbonyl)pyrrolidin-3-yl)methyl)-4,4-dimethyl-1H-imidazol-5(4H)-one]	> 10000	23.4	
Cn1cnc2cc(-c3ccc(C4=NC(C)(C)C(=O)N4C[C@@H]4CCN(C(=O)C5(O)CC5)C4)c(F)c3)ccc21 [Compound 89, (R)-2-(2-fluoro-4-(1-methyl-1H-benzo[d]imidazol-5-yl)phenyl)-1-((1-(1-hydroxycyclopropanecarbonyl)pyrrolidin-3-yl)methyl)-4,4-dimethyl-1H-imidazol-5(4H)-one]	> 10000	6.76	
Cn1cc(-c2ccc(-c3ccc(C4=NC(C)(C)C(=O)N4C[C@@H]4CCN(C(=O)C5(O)CC5)C4)c(F)c3)cc2)cn1 [Compound 95, (R)-2-(3-fluoro-4′-(1-methyl-1H-pyrazol-4-yl)-[1,1′-biphenyl]-4-yl)-1-((1-(1-hydroxycyclopropanecarbonyl)pyrrolidin-3-yl)methyl)-4,4-dimethyl-1H-imidazol-6(4H)-one]	> 10000	~5.37	
Cn1cnc2cc(-c3ccc(C4=NC(C)(C)C(=O)N4C[C@@H]4CCN(C(=O)C5(C)CC5)C4)c(F)c3)ccc21 [Compound 90, (R)-2-(2-fluoro-4-(1-methyl-1H-benzo[d]imidazol-5-yl)phenyl)-4,4-dimethyl-1-((1-(1-methylcyclopropanecarbonyl)pyrrolidin-3-yl)methyl)-1H-imidazol-5(4H)-one]	> 10000	~2.95	
CC1(C)N=C(c2ccc(-c3ccc4occc4c3)cc2)N(C[C@@H]2CCN(C(=O)C3(F)CC3)C2)C1=O [Compound 4, (R)-2-(4-(benzofuran-5-yl)phenyl)-1-((1-(1-fluorocyclopropanecarbonyl)pyrrolidin-3-yl)methyl)-4,4-dimethyl-1H-imidazol-5(4H)-one]	> 10000	2750	
CC1(C)N=C(c2ccc(-c3ccc4occc4c3)cc2)N(C[C@@H]2CCN(C(=O)C3CC3)C2)C1=O [Compound 3, (R)-2-(4-(benzofuran-5-yl)phenyl)-1-((1-(cyclopropanecarbonyl)pyrrolidin-3-yl)methyl)-4,4-dimethyl-1H-imidazol-5(4H)-one]	> 10000	1480	
CC1(C)N=C(c2ccc(-c3ccc4ncccc4c3)cc2)N(C[C@@H]2CCN(C(=O)C3CC3)C2)C1=O [Compound 64, (R)-1-((1-(cyclopropanecarbonyl)pyrrolidin-3-yl)methyl)-4,4-dimethyl-2-(4-(quinolin-6-yl)phenyl)-1H-imidazol-5(4H)-one]	> 10000	4470	
Cc1cc(-c2ccc3cc(C#N)ccc3c2)ccc1C1=NC(C)(C)C(=O)N1CC1CN(C(=O)C2CC2)C1 [Compound 96, 6-(4-(1-((1-(cyclopropanecarbonyl)azetidin-3-yl)methyl)-4,4-dimethyl-5-oxo-4,5-dihydro-1H-imidazol-2-yl)-3-methylphenyl)-2-naphthonitrile]	> 10000	~22.4	
